Test results taken from patent US20160355530A1, “HEPATITIS C INHIBITORS AND USES THEREOF” (AbbVie Inc., priority 2010, published 2016).
Where two headings read alike, the source gives them in different places.

Key:
[1] = molecular target: T1, HCV NS5B polymerase 1b BK strain (Hepatitis C virus genotype 1b, UniProt P26663); assay: HCV NS5B polymerase enzymatic inhibition assay, strain 1b BK; type: biochemical; details: enzyme, strain 1b BK; read-out: HCV Polymerase Strain 1b BK IC50
T1 construct: six-histidine tag; made in house; host or cells: E. coli
How it was run: (§1)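 Recombinant NS5B (residues 1–570, His-tagged, E. coli-expressed) copied 5 nM of a 2.1 kb HCV 1b negative-strand 3′-end RNA template with 20 μM CTP, 20 μM ATP and 0.284 μM [3H]UTP for 3 h at 30 °C. Spermine-precipitated RNA was filter-captured and counted, and IC50 was fitted by nonlinear regression.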

[2] = tested on: HCV 1a-H77 subgenomic replicon; assay: microbe, parasite or virus in culture; type: cell-based, HCV genotype 1a; details: Hepatitis C virus, stable replicon
[3] = tested on: HCV 1b-BB7 subgenomic replicon; assay: microbe, parasite or virus in culture; type: cell-based, HCV genotype 1b; details: Hepatitis C virus, stable replicon
[4] = molecular target: T2, HCV NS5B polymerase 1a-H77-C316Y (Hepatitis C virus genotype 1a, UniProt P27958, C2736Y); assay: biochemical; parameters: species or system HCV genotype 1a
T2 construct: six-histidine tag; made in house; host or cells: E. coli
How it was run: as §1

[5] = molecular target: T3, HCV NS5B polymerase 1a-H77 (Hepatitis C virus genotype 1a, UniProt P27958); assay: biochemical; parameters: species or system HCV genotype 1a; details: enzyme, strain 1a H77; read-out: HCV Polymerase Strain 1a H77 IC50
T3 construct: six-histidine tag; made in house; host or cells: E. coli
How it was run: as §1

[6] = tested on: HCV NS5B polymerase 1a-H77-C316Y; assay: biochemical; parameters: species or system HCV genotype 1a; details: ratio of enzyme IC50s, 1a H77-C316Y / 1a H77
How it was run: as §1

[7] = 5% FBS, absence of human plasma, read-out: Stable Replicon 1a H77 5% FBS EC50
[8] = strain 1a H77, 5% FBS + 40% human plasma, read-out: 1a H77 5% FBS + 40% Human Plasma EC50
[9] = strain 1a H77, 5% FBS, no human plasma, read-out: 1a H77 5% FBS EC50
[10] = strain 1a H77, 5% FBS, read-out: 1a H77 5% FBS EC50
[11] = strain 1b BB7, 5% FBS + 40% human plasma, read-out: 1b BB7 5% FBS + 40% Human Plasma EC50
[12] = strain 1b BB7, 5% FBS, no human plasma, read-out: 1b BB7 5% FBS EC50
[13] = strain 1b BB7, 5% FBS, read-out: 1b BB7 5% FBS EC50

T3 sequence (P27958 2421-2990): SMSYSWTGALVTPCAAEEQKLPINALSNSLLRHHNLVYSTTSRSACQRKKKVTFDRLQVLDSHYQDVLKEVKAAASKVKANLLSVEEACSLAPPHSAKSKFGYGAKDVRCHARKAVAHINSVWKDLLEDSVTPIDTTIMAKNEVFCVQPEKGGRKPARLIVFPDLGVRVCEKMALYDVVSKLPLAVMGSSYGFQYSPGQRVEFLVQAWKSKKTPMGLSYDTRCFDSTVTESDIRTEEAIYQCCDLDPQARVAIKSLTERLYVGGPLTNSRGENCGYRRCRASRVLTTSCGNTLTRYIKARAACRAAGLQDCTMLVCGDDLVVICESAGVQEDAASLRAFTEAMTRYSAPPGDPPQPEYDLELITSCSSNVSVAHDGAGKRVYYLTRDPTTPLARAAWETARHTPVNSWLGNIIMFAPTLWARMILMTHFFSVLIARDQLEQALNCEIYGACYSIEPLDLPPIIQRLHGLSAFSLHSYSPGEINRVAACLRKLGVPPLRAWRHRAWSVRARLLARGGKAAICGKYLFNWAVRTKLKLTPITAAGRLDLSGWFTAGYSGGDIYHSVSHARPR
T2 sequence (P27958 2421-2990 C2736Y): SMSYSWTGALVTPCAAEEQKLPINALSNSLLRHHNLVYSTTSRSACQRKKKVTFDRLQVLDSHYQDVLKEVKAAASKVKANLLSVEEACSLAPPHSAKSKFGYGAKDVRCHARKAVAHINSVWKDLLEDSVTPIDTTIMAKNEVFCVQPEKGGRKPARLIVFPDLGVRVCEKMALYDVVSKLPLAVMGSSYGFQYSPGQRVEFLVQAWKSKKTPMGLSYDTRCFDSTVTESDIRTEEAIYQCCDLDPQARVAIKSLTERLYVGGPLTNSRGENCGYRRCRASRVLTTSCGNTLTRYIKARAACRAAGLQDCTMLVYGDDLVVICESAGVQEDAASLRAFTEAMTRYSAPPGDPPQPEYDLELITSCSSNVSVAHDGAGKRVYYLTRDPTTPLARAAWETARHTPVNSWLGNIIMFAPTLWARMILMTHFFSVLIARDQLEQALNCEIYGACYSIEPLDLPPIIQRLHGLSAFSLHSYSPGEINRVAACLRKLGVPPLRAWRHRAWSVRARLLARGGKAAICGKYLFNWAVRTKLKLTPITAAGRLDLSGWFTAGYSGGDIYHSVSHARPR
T1 sequence (P26663 2420-2989): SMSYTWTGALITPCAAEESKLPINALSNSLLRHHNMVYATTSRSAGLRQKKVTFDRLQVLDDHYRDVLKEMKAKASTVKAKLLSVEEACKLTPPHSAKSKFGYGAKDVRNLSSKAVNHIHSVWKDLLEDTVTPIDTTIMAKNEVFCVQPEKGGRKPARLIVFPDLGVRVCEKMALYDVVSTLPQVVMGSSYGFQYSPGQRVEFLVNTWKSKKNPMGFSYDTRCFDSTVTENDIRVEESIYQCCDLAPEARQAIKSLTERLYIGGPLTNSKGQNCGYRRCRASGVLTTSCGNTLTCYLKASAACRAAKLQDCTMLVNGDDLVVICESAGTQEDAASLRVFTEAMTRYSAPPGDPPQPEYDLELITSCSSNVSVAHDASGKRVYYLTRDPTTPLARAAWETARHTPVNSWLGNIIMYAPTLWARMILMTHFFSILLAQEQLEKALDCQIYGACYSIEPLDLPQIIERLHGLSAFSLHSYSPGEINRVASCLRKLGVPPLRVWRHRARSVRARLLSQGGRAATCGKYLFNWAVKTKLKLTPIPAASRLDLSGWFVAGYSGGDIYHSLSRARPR

SMILES	IC50 [1] [nM]	EC50 [2, 7] [nM]	EC50 [2, 8] [nM]	EC50 [2, 9] [nM]	EC50 [2, 10] [nM]	EC50 [3, 11] [nM]	EC50 [3, 12] [nM]	EC50 [3, 13] [nM]	IC50 [4] [nM]	IC50 [5] [nM]	C316Y/1a Fold Resistance [6] [fold]
CS(=O)(=O)N(CCCC(=O)O)c1cc2oc(-c3ccc(F)cc3)c(-c3ncc[nH]3)c2cc1C1CC1 [Example 89, 4-{[5-cyclopropyl-2-(4-fluorophenyl)-3-(1H-imidazol-2-yl)-1-benzofuran-6-yl](methylsulfonyl)amino}butanoic acid]	65	269	2440	269	269	376	91.5	91.5	77	5	15
CS(=O)(=O)N(CC(O)CO)c1cc2oc(-c3ccc(F)cc3)c(-c3ncc[nH]3)c2cc1C1CC1 (centres unmarked) [Example 93, N-[5-cyclopropyl-2-(4-fluorophenyl)-3-(1H-imidazol-2-yl)-1-benzofuran-6-yl]-N-(2,3-dihydroxypropyl)methanesulfonamide]	117	83.2	915	83.2	83.2	880	63.4	63.4	1600	5	320
CC(C)(O)C(O)CN(c1cc2oc(-c3ccc(F)cc3)c(-c3ncc[nH]3)c2cc1C1CC1)S(C)(=O)=O (centres unmarked) [Example 94, N-[5-cyclopropyl-2-(4-fluorophenyl)-3-(1H-imidazol-2-yl)-1-benzofuran-6-yl]-N-(2,3-dihydroxy-3-methylbutyl)methanesulfonamide]	28	60.2	599	60.2	60.2	360	76.3	76.3	1000	9.4	107
CC(O)CN(c1cc2oc(-c3ccc(F)cc3)c(-c3ncc[nH]3)c2cc1C1CC1)S(C)(=O)=O (centres unmarked) [Example 98, N-[5-cyclopropyl-2-(4-fluorophenyl)-3-(1H-imidazol-2-yl)-1-benzofuran-6-yl]-N-(2-hydroxypropyl)methanesulfonamide]	240	158	1630	158	158	2060	136	136	3200	24.5	131
CS(=O)(=O)N(CCCC(=O)N1CCOCC1)c1cc2oc(-c3ccc(F)cc3)c(-c3ncc[nH]3)c2cc1C1CC1 [Example 103, N-[5-cyclopropyl-2-(4-fluorophenyl)-3-(1H-imidazol-2-yl)-1-benzofuran-6-yl]-N-[4-(morpholin-4-yl)-4-oxobutyl]methanesulfonamide]	55	44.6	563	44.6	44.6	114	13.9	13.9	400	7.9	50
CS(=O)(=O)N(CCCC(=O)N1CCCCC1)c1cc2oc(-c3ccc(F)cc3)c(-c3ncc[nH]3)c2cc1C1CC1 [Example 104, N-[5-cyclopropyl-2-(4-fluorophenyl)-3-(1H-imidazol-2-yl)-1-benzofuran-6-yl]-N-[4-oxo-4-(piperidin-1-yl)butyl]methanesulfonamide]	52	31.9	502	31.9	31.9	268	13.3	13.3	180	6.9	26
CS(=O)(=O)NC(=O)CCCN(c1cc2oc(-c3ccc(F)cc3)c(-c3ncc[nH]3)c2cc1C1CC1)S(C)(=O)=O [Example 105, 4-{[5-cyclopropyl-2-(4-fluorophenyl)-3-(1H-imidazol-2-yl)-1-benzofuran-6-yl](methylsulfonyl)amino}-N-(methylsulfonyl)butanamide]	16	108	1060	108	108	519	68.6	68.6	111	8	14
CC(C)(O)C(=O)CCN(c1cc2oc(-c3ccc(F)cc3)c(-c3ncc[nH]3)c2cc1C1CC1)S(C)(=O)=O [Example 106, N-[5-cyclopropyl-2-(4-fluorophenyl)-3-(1H-imidazol-2-yl)-1-benzofuran-6-yl]-N-(4-hydroxy-4-methyl-3-oxopentyl)methanesulfonamide]	19	54.4	915	54.4	54.4	221	27.3	27.3	101	7.3	14
CS(=O)(=O)N(CCC(O)CO)c1cc2oc(-c3ccc(F)cc3)c(-c3ncc[nH]3)c2cc1C1CC1 (centres unmarked) [Example 110, N-[5-cyclopropyl-2-(4-fluorophenyl)-3-(1H-imidazol-2-yl)-1-benzofuran-6-yl]-N-(3,4-dihydroxybutyl)methanesulfonamide]	12	14.3	206	14.3	14.3	315	16.7	16.7	125	6.5	19
CS(=O)(=O)N(CCN)c1cc2oc(-c3ccc(F)cc3)c(-c3ncc[nH]3)c2cc1C1CC1 [Example 111, N-(2-aminoethyl)-N-[5-cyclopropyl-2-(4-fluorophenyl)-3-(1H-imidazol-2-yl)-1-benzofuran-6-yl]methanesulfonamide]	111	152	1000	152	152	92	40.4	40.4	2000	9.9	201
CS(=O)(=O)N(CCCN)c1cc2oc(-c3ccc(F)cc3)c(-c3ncc[nH]3)c2cc1C1CC1 [Example 112, N-(3-aminopropyl)-N-[5-cyclopropyl-2-(4-fluorophenyl)-3-(1H-imidazol-2-yl)-1-benzofuran-6-yl]methanesulfonamide]	51	262	1030	262	262	101	34	34	868	10.6	82
COc1ccc(CN(c2cc3oc(-c4ccc(F)cc4)c(-c4nc(Cl)c[nH]4)c3cc2C2CC2)S(C)(=O)=O)cc1 [Example 159, N-[3-(4-chloro-1H-imidazol-2-yl)-5-cyclopropyl-2-(4-fluorophenyl)-1-benzofuran-6-yl]-N-(4-methoxybenzyl)methanesulfonamide]	438	990	10000	990	990	10000	544	544	8000	45	178
CC(C)CCN(c1cc2oc(-c3ccc(F)cc3)c(-c3nccc(=O)[nH]3)c2cc1C1CC1)S(C)(=O)=O [Example 161, N-[5-cyclopropyl-2-(4-fluorophenyl)-3-(6-oxo-1,6-dihydropyrimidin-2-yl)-1-benzofuran-6-yl]-N-(3-methylbutyl)methanesulfonamide]	791	124	7910	124	124	10000	188	188	219	47.5	5
COc1ccc(CN(c2cc3oc(-c4ccc(F)cc4)c(-c4ncc[nH]4)c3cc2OC(C)C)S(C)(=O)=O)cc1 [Example 170, N-[2-(4-fluorophenyl)-3-(1H-imidazol-2-yl)-5-isopropoxy-1-benzofuran-6-yl]-N-(4-methoxybenzyl)methanesulfonamide]	338	540	–	540	540	–	121	121	20000	36	556
